From ChEMBL document CHEMBL1955720 (Bioorg Med Chem, 2012)

Assays:
[1] = system: RAW264.7; test: Antiinflammatory activity in mouse RAW264.7 cells assessed as inhibition of LPS-induced NO production at 40 uM preincubated for 30 mins measured 24 hrs post LPS challenge by Griess method; format: functional
[2] = system: HEK293; test: Inhibition of TNF-alpha activated NF-kappaB expressed in HEK293 cells at 50 uM by luciferase reporter gene assay; format: cell-based
[3] = biological target: T1, Aromatase (Homo sapiens, UniProt P11511)
T1 sequence (P11511 whole entry): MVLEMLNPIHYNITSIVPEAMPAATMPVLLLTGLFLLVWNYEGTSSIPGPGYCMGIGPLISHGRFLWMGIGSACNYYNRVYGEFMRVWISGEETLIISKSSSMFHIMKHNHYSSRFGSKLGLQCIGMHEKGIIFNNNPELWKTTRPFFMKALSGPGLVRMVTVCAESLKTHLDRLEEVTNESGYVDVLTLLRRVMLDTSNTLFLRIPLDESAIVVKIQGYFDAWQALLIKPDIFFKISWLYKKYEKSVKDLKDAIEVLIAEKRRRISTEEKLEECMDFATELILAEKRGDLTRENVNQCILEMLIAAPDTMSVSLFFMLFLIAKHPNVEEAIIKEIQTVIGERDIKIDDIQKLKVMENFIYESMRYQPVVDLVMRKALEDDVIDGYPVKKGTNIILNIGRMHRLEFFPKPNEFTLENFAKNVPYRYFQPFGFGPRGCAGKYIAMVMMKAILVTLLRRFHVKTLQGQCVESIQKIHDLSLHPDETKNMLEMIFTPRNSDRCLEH

[4] = biological target: NAD(P)H dehydrogenase [quinone] 1 (Mus musculus) (UniProt Q64669); test: Induction of QR1 in mouse Hepa-1c1c7 cells assessed as induction ratio at 50 uM by MTT assay; format: cell-based
NAD(P)H dehydrogenase [quinone] 1 (Mus musculus), sequence (Q64669 whole entry): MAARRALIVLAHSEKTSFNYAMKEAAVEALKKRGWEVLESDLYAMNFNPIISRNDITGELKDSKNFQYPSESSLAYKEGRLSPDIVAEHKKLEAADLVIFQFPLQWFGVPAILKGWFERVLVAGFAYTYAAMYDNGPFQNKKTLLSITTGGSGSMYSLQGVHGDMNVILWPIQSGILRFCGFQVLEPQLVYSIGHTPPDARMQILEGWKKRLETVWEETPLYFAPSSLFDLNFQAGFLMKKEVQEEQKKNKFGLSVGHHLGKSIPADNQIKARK

[5] = biological target: T1, Aromatase; remark: listed apart in the source
[6] = Inhibition of TNF-alpha activated NF-kappaB expressed in HEK293 cells by luciferase reporter gene assay; format: cell-based
[7] = biological target: NAD(P)H dehydrogenase [quinone] 1 (Mus musculus) (UniProt Q64669); test: Induction of QR1 in mouse Hepa-1c1c7 cells assessed as concentration required to double QR1 induction by MTT assay; format: cell-based
[8] = system: MCF7; test: cells; details: Homo sapiens
Description: Cytotoxicity against human MCF7 cells by SRB assay

[9] = biological target: T2, Nitric oxide synthase, inducible (Mus musculus, UniProt P29477)
T2 sequence (P29477 whole entry): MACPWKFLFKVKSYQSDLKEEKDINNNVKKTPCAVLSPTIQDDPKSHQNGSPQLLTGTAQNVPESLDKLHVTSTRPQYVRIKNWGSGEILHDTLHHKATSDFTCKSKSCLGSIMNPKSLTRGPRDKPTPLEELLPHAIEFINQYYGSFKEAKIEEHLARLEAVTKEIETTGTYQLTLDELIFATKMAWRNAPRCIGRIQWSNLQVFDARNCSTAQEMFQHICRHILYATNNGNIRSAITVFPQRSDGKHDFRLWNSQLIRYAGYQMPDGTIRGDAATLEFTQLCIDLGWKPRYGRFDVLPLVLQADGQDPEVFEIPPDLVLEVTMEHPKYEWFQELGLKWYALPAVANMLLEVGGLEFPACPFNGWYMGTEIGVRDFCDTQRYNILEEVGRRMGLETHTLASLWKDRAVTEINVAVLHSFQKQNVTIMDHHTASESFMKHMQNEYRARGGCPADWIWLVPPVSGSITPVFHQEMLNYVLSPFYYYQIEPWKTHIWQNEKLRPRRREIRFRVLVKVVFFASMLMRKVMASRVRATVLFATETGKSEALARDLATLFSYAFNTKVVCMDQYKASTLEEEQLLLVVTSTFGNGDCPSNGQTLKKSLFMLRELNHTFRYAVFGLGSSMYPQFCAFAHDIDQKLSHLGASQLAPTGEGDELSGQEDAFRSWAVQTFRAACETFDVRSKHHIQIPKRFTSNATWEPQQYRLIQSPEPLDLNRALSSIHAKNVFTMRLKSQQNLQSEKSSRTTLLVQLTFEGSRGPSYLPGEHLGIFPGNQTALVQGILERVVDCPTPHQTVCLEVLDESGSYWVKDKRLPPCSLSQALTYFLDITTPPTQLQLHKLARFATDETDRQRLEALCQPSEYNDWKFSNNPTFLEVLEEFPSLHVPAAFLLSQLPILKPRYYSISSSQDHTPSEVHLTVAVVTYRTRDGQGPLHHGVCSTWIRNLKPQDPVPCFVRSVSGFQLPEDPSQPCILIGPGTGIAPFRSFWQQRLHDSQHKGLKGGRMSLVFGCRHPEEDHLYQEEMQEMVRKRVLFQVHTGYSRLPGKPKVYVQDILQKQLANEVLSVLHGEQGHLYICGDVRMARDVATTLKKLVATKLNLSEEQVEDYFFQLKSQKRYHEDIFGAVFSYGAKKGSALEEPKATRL
Description: Inhibition of iNOS in LPS-stimulated mouse RAW264.7 cells after 18 hrs

[10] = biological target: T1, Aromatase; test: Inhibition of human aromatase using dibenzylfluorescein substrate at 20 uM after 30 mins by fluorescence assay; details: 0.5 h
[11] = system: RAW264.7; test: Antiinflammatory activity in mouse RAW264.7 cells assessed as inhibition of LPS-induced NO production preincubated for 30 mins measured 24 hrs post LPS challenge by Griess method; format: functional, cell-based

| Ki [3] | Ratio [4] | IC50 [5] | IC50 [6] | CD [7] | IC50 [8] | IC50 [9] | inhibition (INH) [10] | IC50 [11] | Compound | inhibition at 40 µM [1] | inhibition [2] |
| --- | --- | --- | --- | --- | --- | --- | --- | --- | --- | --- | --- |
|  |  |  |  |  |  |  |  |  | COc1ccc(-c2csc(-c3ccncc3)n2)cn1 | 32.1% | 6% |
| 2550 nM | 0.87 | 11200 nM |  |  |  |  |  |  | Oc1ccc(-c2nc(-c3cccnc3)cs2)cc1 | 35.7% | 52.9% |
|  |  |  | 10400 nM | 32 µM |  |  |  |  | Clc1ccc(-c2nc(-c3cccnc3)cs2)cc1 | 76.3% | 54% |
|  |  |  |  | 0.08 µM |  |  |  |  | COc1cccc(-c2nc(-c3cccnc3)ns2)c1 |  | 22.4% |
|  |  |  |  |  |  |  |  |  | Fc1ccc(-c2nc(-c3cccnc3)cs2)cc1 | 54.6% | 28.8% |
|  |  |  |  |  | 87600 nM | 23200 nM |  |  | Oc1ccc(/C=C/c2cc(O)cc(O)c2)cc1 [RESVERATROL] |  |  |
| 100 nM | 1.1 | 1360 nM |  |  |  |  | Active |  | CCOc1ccc(-c2csc(-c3ccncc3)n2)cn1 | 28.1% | -2.4% |
|  |  |  |  |  |  |  |  |  | COc1ccc(-c2csc(-c3cccnc3)n2)cn1 | 16.3% |  |
| 15000 nM | 1.1 | 18000 nM |  |  |  |  |  |  | COc1ccc(-c2nc(-c3cccnc3)cs2)cc1 | 48.3% | 59.9% |
|  |  |  | 2550 nM |  |  |  |  |  | c1cncc(-c2csc(-c3ccncc3)n2)c1 |  | 68.8% |
| 1480 nM | 5.1 | 7410 nM |  | 20.1 µM |  |  | Active |  | Brc1ccc(-c2csc(-c3cccnc3)n2)cn1 | 22.7% | 16.4% |
| 1720 nM | 4.27 | 7920 nM | 19900 nM | 32.8 µM |  |  |  |  | Brc1ccc(-c2nc(-c3cccnc3)cs2)cc1 | 72.5% | 46.8% |
|  |  |  |  |  |  |  |  |  | Clc1cc(-c2nc(-c3cccnc3)cs2)ccn1 | -5.2% |  |
| 63.4 nM | 1.45 | 900 nM | 17700 nM |  |  |  |  |  | c1ccc(-c2nc(-c3cccnc3)cs2)cc1 | 60.1% | 50.3% |
| 0.65 nM | 0.7 | 23 nM |  |  |  |  |  | 47800 nM | COc1cc(-c2nc(-c3cccnc3)cs2)ccn1 | 54.7% | -4.9% |
| 285 nM | 1.5 | 2680 nM |  |  |  |  | Active |  | Brc1ccc(-c2csc(-c3ccncc3)n2)cn1 | 8.6% |  |
| 1160 nM | 9.2 | 6730 nM |  | 0.06 µM |  |  |  |  | Brc1cccc(-c2nc(-c3cccnc3)ns2)c1 |  | 12.9% |
